Reference: the Bradley open melting point set (2014)
“And” between values parts separate entries of the source, which are not always exact repeats. Equal values may be shown once.

| Compound | melting point |
| --- | --- |
| NCC(CC(=O)O)c1ccc(Cl)cc1 (stereo unspecified) [baclofen] | 208 °C |
| CCCCCCCCCCCCCCCCCCCCCC(=O)O [behenic acid] | 76 °C |
| CCN(CC)CCOC(=O)C(O)(c1ccccc1)c1ccccc1 [benactyzin] | 51 °C |
| ClC(Cl)c1ccccc1 [benzal chloride] | -16 °C |
| C(=N\c1ccccc1)/c1ccccc1 [benzalaniline] | 51 °C and 49 °C and 46 °C |
| NC(=O)c1ccccc1 [benzamide] | 126 °C and 127 °C |
| O=C(Nc1ccccc1)c1ccccc1 [benzanilide] | 164 °C |
| c1ccc2cc3c(ccc4ccccc43)cc2c1 [benzanthracene] | 160 °C |
| CCc1oc2ccccc2c1C(=O)c1ccc(O)cc1 [benzarone] | 124 °C |
| NS(=O)(=O)c1ccccc1 [benzenesulfonamide] | 153 °C |
| OC(c1ccccc1)c1ccccc1 [benzhydrol] | 66 °C |
| BrC(c1ccccc1)c1ccccc1 [benzhydryl bromide] | 39 °C |
| O=C(C(=O)c1ccccc1)c1ccccc1 [benzil] | 95 °C |
| c1ccc2c(c1)OCCOCCOCCOCCOCCO2 [benzo-18-crown-6] | 44 °C |
| O=C(O)c1cc2ccccc2s1 [benzo[b]thiophene-2-carboxylic acid] | 239 °C |
| O=C(O)c1ccc2c(c1)no[n+]2[O-] [benzofuroxan-5-carboxylic acid] | 128 °C |
| [O-][n+]1onc2ccccc21 [benzofuroxan] | 69 °C |
| O=C(O)c1ccccc1 [benzoic acid] | 122 °C (5×) and 123 °C (2×) |
| N#Cc1ccccc1 [benzonitrile] | -13 °C |
| O=C(c1ccccc1)C(c1ccccc1)(c1ccccc1)c1ccccc1 [benzopinacolone] | 182 °C |
| O=C(Cl)c1ccccc1 [benzoyl chloride] | -1 °C |
| O=C(CC(=O)c1ccccc1O)c1ccccc1 [benzoyl(2-hydroxybenzoyl)methane] | 120 °C |

| Compound | melting point |
| --- | --- |
| N#CCC(=O)c1ccccc1 [benzoylacetonitrile] | 81 °C |
| CC(=O)OC1C(C)OC(OCc2ccccc2)C(OC(C)=O)C1OC(C)=O (stereo unspecified) [benzyl 2,3,4-tri-O-acetyl-6-deoxyhexopyranoside] | 112 °C |
| ClCc1ccccc1 [benzyl chloride] | -43 °C |
| ClCc1ccccc1 [benzyl_chloride] | -43 °C |
| CC(=O)N[C@H]1[C@H](OC(C)=O)O[C@H](COC(C)=O)[C@@H](OC(C)=O)[C@@H]1OC(C)=O [beta-D-glucosamine pentaacetate] | 187 °C |
| NCCC(=O)O [beta-alanine] | 200 °C |
| BrC=Cc1ccccc1 [beta-bromostyrene, cis trans] | -8 °C |
| c1ccc2c(-c3cccc4ccccc34)cccc2c1 [binaphthyl] | 154 °C |
| COc1ccc(C(=O)c2ccc(-c3ccccc3)cc2)cc1OC [biphenyl-4-yl(3,4-dimethoxyphenyl)methanone] | 108 °C |
| c1ccc2c(c1)-c1ccccc1-2 [biphenylene] | 115 °C |
| CCCCC(CC)COC(=O)CCCCC(=O)OCC(CC)CCCC (stereo unspecified) [bis(2-ethylhexyl) adipate] | -67 °C |
| CC(C)(c1ccc(O)cc1)c1ccc(O)cc1 [bisphenol a] | 156 °C |
| CC(C)(C)OC(=O)O/N=C(\C#N)c1ccccc1 [boc-on] | 88 °C |
| CB(C)Br [bromodimethylborane] | -129 °C |
| BrC(c1ccccc1)c1ccccc1 [bromodiphenylmethane] | 41 °C |
| CCBr [bromoethane] | -119 °C |
| Cc1c(C)c(C)c(Br)c(C)c1C [bromopentamethylbenzene] | 162 °C |
| Cc1c(C2(c3cc(C(C)C)c(O)c(Br)c3C)OS(=O)(=O)c3ccccc32)cc(C(C)C)c(O)c1Br [bromothymol blue] | 201 °C |
| C[Si](C)(C)Br [bromotrimethylsilane] | -44 °C |
| BrC(=C(c1ccccc1)c1ccccc1)c1ccccc1 [bromotriphenylethylene] | 114 °C |
| BrC(c1ccccc1)(c1ccccc1)c1ccccc1 [bromotriphenylmethane] | 154 °C |
| CCOc1ccc(NC(=O)CC(C)O)cc1 (stereo unspecified) [bucetin] | 160 °C |

| Compound | melting point |
| --- | --- |
| CCCCN1CCCCC1C(=O)Nc1c(C)cccc1C (stereo unspecified) [bupivacaine] | 107 °C |
| CCCCOC(=O)c1ccc(N)cc1 [butamben] | 58 °C |
| CCCC=O [butanal] | -97 °C |
| CCCC(=O)O [butanoic_acid] | -5 °C |
| CCCCc1ccccc1 [butylbenzene] | -88 °C |
| CCCCOC(=O)c1ccc(O)cc1 [butylparaben] | 68.5 °C |
| CCCC=NO [butyraldoxime] | -29 °C |
| CCCC(=O)O [butyric acid] | -5.7 °C |
| CCCC#N [butyronitrile] | -112 °C |
| NC(=O)N1c2ccccc2C=Cc2ccccc21 [carbamazepine] | 190 °C |
| ClC(Cl)(Cl)Cl [carbon tetrachloride] | -23 °C (4×) and -22.9 °C |
| CCCC(C)(COC(N)=O)COC(=O)NC(C)C (stereo unspecified) [carisoprodol] | 92 °C |
| B1Oc2ccccc2O1 [catecholborane] | 12 °C |
| CCN(CC)C(=O)Nc1ccc(OCC(O)CNC(C)(C)C)c(C(C)=O)c1 (stereo unspecified) [celiprolol] | 110 °C |
| OC(O)C(Cl)(Cl)Cl [chloral hydrate] | 57 °C |
| O=C(N[C@H](CO)[C@H](O)c1ccc([N+](=O)[O-])cc1)C(Cl)Cl [chloramphenicol] | 151 °C |
| O=C1OC(=O)C2C1C1(Cl)C(Cl)=C(Cl)C2(Cl)C1(Cl)Cl (stereo unspecified) [chlorendic anhydride] | 237 °C |
| O=C(CCl)OC(=O)CCl [chloroacetic anhydride] | 58 °C |
| ClC(Br)Br [chlorodibromomethane] | -22 °C |
| C[SiH](C)Cl [chlorodimethylsilane] | -111 °C |
| C[Si](C)(C)Cl [chlorotrimethylsilane] | -58 °C |
| CN(C)[C@@H]1C(O)=C(C(N)=O)C(=O)[C@@]2(O)C(O)=C3C(=O)c4c(O)ccc(Cl)c4[C@@](C)(O)[C@H]3C[C@@H]12 [chlortetracycline] | 168 °C |

| Compound | melting point |
| --- | --- |
| CC(C)CCCC(C)C1CCC2C3CCC4CCCCC4(C)C3CCC12C (stereo unspecified) [cholestane] | 80 °C |
| CC(C)CCC[C@@H](C)[C@H]1CC[C@H]2[C@@H]3CC=C4C[C@@H](O)CC[C@]4(C)[C@H]3CC[C@]12C [cholesterol] | 148 °C (3×) and 149 °C |
| c1ccc2c(c1)ccc1c3ccccc3ccc21 [chrysene] | 255 °C |
| CC[C@@H]1CCC[C@@H]1CC [cis-1,2-diethylcyclopentane] | -118 °C |
| C[C@@H]1CCC[C@H](C)C1 [cis-1,3-dimethylcyclohexane] | -76 °C |
| ClC/C=C\CCl [cis-1,4-dichloro-2-butene] | -48 °C |
| C/C=C\Br [cis-1-bromo-1-propene] | -113 °C |
| C/C=C\c1ccccc1 [cis-1-phenyl-1-propene] | -62 °C |
| C[C@@H]1CNC[C@H](C)O1 [cis-2,6-dimethylmorpholine] | -85 °C |
| O=C(O)/C=C(/CC(=O)O)C(=O)O [cis-aconitic acid] | 118 °C |
| C1CC[C@H]2CCCC[C@H]2C1 [cis-decalin] | -43 °C |
| C(=C/c1ccccc1)/c1ccccc1 [cis-stilbene] | 2 °C |
| COC(=O)[C@H]1[C@@H](OC(=O)c2ccccc2)C[C@@H]2CC[C@H]1N2C [cocaine] | 98 °C |
| COc1cc(/C=C/CO)ccc1O [coniferyl alcohol] | 76 °C |
| O=C4\C=C2/[C@]([C@H]1CC[C@@]3([C@@](O)(C(=O)CO)CC[C@H]3[C@@H]1CC2)C)(C)CC4 [cortexolone] | 208 °C |
| C[C@]12C[C@H](O)[C@H]3[C@@H](CCC4=CC(=O)CC[C@@]43C)[C@@H]1CC[C@@H]2C(=O)CO [corticosterone] | 145 °C |
| COc1cc(/C=C/C(=O)CC(=O)/C=C/c2ccc(O)c(OC)c2)ccc1O [curcumin] | 173 °C |
| N#CCC(=O)O [cyanoacetic acid] | 67 °C |
| O=C1CCC1 [cyclobutanone] | -51 °C |
| O=C1CCCCCCCCCCC1 [cyclododecanone] | 61 °C |
| C1CCCCC1 [cyclohexane] | 7 °C |
| O=C(O)C1CCCCC1 [cyclohexanecarboxylic acid] [listing 1 of 3 here] | 30 °C |

| Compound | melting point |
| --- | --- |
| O=C(O)C1CCCCC1 [cyclohexanecarboxylic acid] [listing 2 of 3 here] | 31 °C |
| O=C(O)C1CCCCC1 [cyclohexanecarboxylic acid] [listing 3 of 3 here] | 31.5 °C |
| O=C1CCCCC1 [cyclohexanone] | -29 °C and -27.9 °C |
| O=C(c1ccccc1)C1CCCCC1 [cyclohexyl phenyl ketone] | 55 °C |
| c1ccc(C2CCCCC2)cc1 [cyclohexylbenzene] | 6 °C |
| C1CCCC1 [cyclopentane] | -94 °C (2×) and -93.9 °C |
| O=C(O)C1CCCC1 [cyclopentanecarboxylic acid] | 3.5 °C |
| OC1CCCC1 [cyclopentanol] [listing 1 of 3 here] | -17.5 °C and -16.2 °C |
| OC1CCCC1 [cyclopentanol] [listing 2 of 3 here] | -19 °C |
| OC1CCCC1 [cyclopentanol] [listing 3 of 3 here] | -19 °C |
| O=C1CCCC1 [cyclopentanone] | -51 °C |
| NC1CCCC1 [cyclopentylamine] | -85 °C |
| O=C(O)C1CC1 [cyclopropanecarboxylic acid] | 18 °C and 18.5 °C and 16.8 °C |
| C#C[C@]5(O)CC[C@H]4[C@H]3[C@@H]([C@@]2(/C(=C\c1oncc1C2)CC3)C)CC[C@@]45C [danazol] | 225 °C |
| Nc1ccc(S(=O)(=O)c2ccc(N)cc2)cc1 [dapsone] | 176 °C |
| CCCCCCCCCC(=O)O [decanoic acid] | 31 °C |
| CCCCCCCCCC(=O)O [decanoic_acid] | 32 °C |
| C[C@]12CC[C@H]3[C@@H](CCC4=CC(=O)CC[C@@]43C)[C@@H]1CC[C@@H]2C(=O)CO [deoxycorticosterone] | 142 °C |
